From the CheMixHub viscosity set

Test: xn = mol fraction of the nth substance listed

CCCCN + ClC(Cl)(Cl)Cl
viscosity [mPa·s], 101 kPa
Settings	293.15 K	298.15 K	303.15 K	308.15 K
x1 = 0.1017	0.924	0.86	0.806	0.76
x1 = 0.1975	0.879	0.818	0.766	0.723
x1 = 0.2974	0.832	0.774	0.726	0.684
x1 = 0.3676	0.799	0.743	0.697	0.657
x1 = 0.4895	0.742	0.69	0.647	0.61
x1 = 0.5536	0.712	0.661	0.621	0.585
x1 = 0.6318	0.675	0.627	0.589	0.555
x1 = 0.6708	0.657	0.61	0.573	0.54
x1 = 0.7779	0.606	0.563	0.53	0.499
x1 = 0.8299	0.582	0.54	0.508	0.479
x1 = 0.912	0.543	0.504	0.475	0.447

Cc1ccncc1 + CO
298.15 K, 101.33 kPa
Settings	viscosity [mPa·s]
x2 = 0.1671	0.8666
x2 = 0.3035	0.8547
x2 = 0.4194	0.8291
x2 = 0.5171	0.8161
x2 = 0.6328	0.7764
x2 = 0.7977	0.7033
x2 = 0.8892	0.6526
x2 = 0.967	0.5799

CCCCN + CC(C)CO
298.15 K, 101.32 kPa
Settings	viscosity [mPa·s]
x2 = 0.1005	0.5513
x2 = 0.2	0.6546
x2 = 0.2984	0.7783
x2 = 0.3994	0.9361
x2 = 0.4997	1.135
x2 = 0.5998	1.373
x2 = 0.7007	1.674
x2 = 0.8122	2.126
x2 = 0.8939	2.593

CCn1ccnc1 + CO
viscosity [mPa·s], 101 kPa
Settings	298.15 K	308.15 K	318.15 K
x1 = 0.0461	0.654	0.5768	0.5141
x1 = 0.1003	0.7495	0.6547	0.5802
x1 = 0.2389	1.012	0.8673	0.7489
x1 = 0.3039	1.133	0.967	0.8304
x1 = 0.3938	1.285	1.085	0.9324
x1 = 0.4588	1.383	1.163	0.9927
x1 = 0.5724	1.525	1.275	1.085
x1 = 0.7001	1.669	1.388	1.177
x1 = 0.794	1.766	1.467	1.24
x1 = 0.8988	1.861	1.536	1.296
x1 = 0.9431	1.89	1.56	1.316

CCCCN + CCCCN(CCCC)CCCC
viscosity [mPa·s], 101 kPa
Settings	x2 = 0.0993	x2 = 0.193	x2 = 0.3946	x2 = 0.4948	x2 = 0.5888	x2 = 0.7738	x2 = 0.8887
303.15 K	0.5014	0.566	0.7175	0.7961	0.8701	1.013	1.094
313.15 K	0.4423	0.4968	0.6233	0.688	0.7498	0.8682	0.9377

CC[N+](=O)[O-] + CC(C)O
viscosity [mPa·s], 101.33 kPa
Settings	293.15 K	303.15 K	313.15 K
x2 = 0.0501	0.68	0.605	0.536
x2 = 0.1	0.672	0.595	0.53
x2 = 0.15	0.671	0.592	0.526
x2 = 0.2	0.678	0.594	0.526
x2 = 0.25	0.698	0.601	0.53
x2 = 0.3	0.707	0.613	0.538
x2 = 0.35	0.729	0.628	0.546
x2 = 0.4	0.766	0.647	0.559
x2 = 0.4501	0.8	0.67	0.576
x2 = 0.5	0.827	0.697	0.597
x2 = 0.5499	0.881	0.731	0.62
x2 = 0.6001	0.932	0.777	0.648
x2 = 0.65	1	0.819	0.683
x2 = 0.7	1.08	0.877	0.725
x2 = 0.7499	1.18	0.949	0.774
x2 = 0.8	1.276	1.052	0.849
x2 = 0.8499	1.467	1.154	0.915
x2 = 0.9	1.681	1.305	1.021
x2 = 0.95	1.983	1.507	1.16

O=C(O)C(Cl)(Cl)Cl + CCOC(C)=O
298.15 K, 101 kPa
Settings	viscosity [mPa·s]
x1 = 0.1118	0.5878
x1 = 0.184	0.7309
x1 = 0.2807	1.001
x1 = 0.3846	1.449
x1 = 0.4878	2.176
x1 = 0.6142	3.467
x1 = 0.7008	4.709

CCCCN + CCC(=O)O
viscosity [mPa·s], 101 kPa
Settings	x2 = 0.2	x2 = 0.3	x2 = 0.4	x2 = 0.5	x2 = 0.6	x2 = 0.7	x2 = 0.75	x2 = 0.8	x2 = 0.875
293.15 K	1.82	15.13	63.74	0.5662	178	54.56	30.14	18.72	5.08
298.15 K	1.75	12.72	51.68	0.4002	137.5	43.2	25.03	15.68	4.48
303.15 K	1.63	10.92	41.89	–	107.7	35.21	20.17	13	4.05
308.15 K	1.56	9.48	34.98	–	85.1	29.21	17.49	11.15	3.57
313.15 K	1.44	8.34	29.06	176.5	71.2	24.51	15.02	–	3.09
313.5 K	–	–	–	–	–	–	–	9.51	–
318.15 K	1.41	7.31	24.58	136.6	57.9	20.64	12.59	8.34	2.86
323.15 K	–	6.66	21.02	112.7	47.7	17.83	11.15	7.33	2.73

Cc1ccncc1 + CC(C)O
298.15 K, 101.33 kPa
Settings	viscosity [mPa·s]
x2 = 0.0886	0.8731
x2 = 0.1711	0.8916
x2 = 0.2569	0.9174
x2 = 0.4424	0.9998
x2 = 0.5207	1.048
x2 = 0.6685	1.181
x2 = 0.8095	1.405
x2 = 0.8831	1.599

CCCCN + CCOCCO
308.15 K, 101 kPa
Settings	viscosity [mPa·s]
x2 = 0.0802	0.5335
x2 = 0.2044	0.6473
x2 = 0.3059	0.7671
x2 = 0.4065	0.8896
x2 = 0.5068	1.007
x2 = 0.6065	1.115
x2 = 0.7058	1.209
x2 = 0.9024	1.376

O=C(O)[C@H](O)[C@@H](O)C(=O)O + O
298.2 K, 101.33 kPa
Settings	viscosity [mPa·s]
x1 = 0.00125	0.9157
x1 = 0.002751	0.942
x1 = 0.00453	0.9725
x1 = 0.00652	0.9964
x1 = 0.008655	1.043
x1 = 0.01037	1.046
x1 = 0.01172	1.088

CCCCN + CCCO
viscosity [mPa·s]
Settings	298.15 K	303.15 K	313.15 K
100 kPa, x2 = 0.1	0.534	–	–
100 kPa, x2 = 0.198	0.612	–	–
100 kPa, x2 = 0.301	0.711	–	–
100 kPa, x2 = 0.417	0.846	–	–
100 kPa, x2 = 0.501	0.965	–	–
100 kPa, x2 = 0.6	1.117	–	–
100 kPa, x2 = 0.695	1.273	–	–
100 kPa, x2 = 0.786	1.451	–	–
100 kPa, x2 = 0.925	1.76	–	–
101.33 kPa, x1 = 0.095	–	1.64	1.281
101.33 kPa, x1 = 0.1888	–	1.48	1.159
101.33 kPa, x1 = 0.2913	–	1.286	1.018
101.33 kPa, x1 = 0.3804	–	1.129	0.9048
101.33 kPa, x1 = 0.5153	–	0.9113	0.7453
101.33 kPa, x1 = 0.6163	–	0.7686	0.6425
101.33 kPa, x1 = 0.7142	–	0.6509	0.5578
101.33 kPa, x1 = 0.788	–	0.5832	0.5009
101.33 kPa, x1 = 0.9022	–	0.4992	0.4349

CCCCC(CC)COP(=O)(OCC(CC)CCCC)OCC(CC)CCCC (stereo not drawn) + CCCCCCC
viscosity [mPa·s], 101 kPa
Settings	x1 = 0.0981	x1 = 0.2035	x1 = 0.2861	x1 = 0.4005	x1 = 0.4721	x1 = 0.5804	x1 = 0.7028	x1 = 0.8061	x1 = 0.9053
298.15 K	0.691	1.161	1.648	2.531	3.204	4.44	6.106	7.818	9.599
303.15 K	0.645	1.071	1.509	2.267	2.848	3.886	5.277	6.674	8.111
308.15 K	0.604	0.992	1.377	2.046	2.547	3.434	4.599	5.747	6.914

CCCC(=O)OCC(COC(=O)CCC)OC(=O)CCC + CCO
viscosity [mPa·s], 101.33 kPa
Settings	x1 = 0.1	x1 = 0.2	x1 = 0.3	x1 = 0.4	x1 = 0.5	x1 = 0.6	x1 = 0.7	x1 = 0.8	x1 = 0.9
298 K	1.59	2.22	2.92	3.63	4.38	5.15	5.97	6.78	7.71
303 K	1.44	1.98	2.58	3.19	3.81	4.48	5.14	5.82	6.58
308 K	1.31	1.78	2.29	2.81	3.35	3.91	4.48	5.04	5.67
313 K	1.21	1.61	2.06	2.51	2.97	3.43	3.92	4.4	4.92

c1cc2c3c(cccc3c1)CC2 + CO
viscosity [mPa·s], 101.33 kPa
Settings	298.15 K	303.15 K	308.15 K	313.15 K	318.15 K
x1 = 0.00465	0.5715	0.5301	0.494	0.4598	0.436
x1 = 0.0072	–	0.5362	0.5036	0.4714	0.4405

CCCCCCCCCC(=O)OCC + CCCCO
viscosity [mPa·s], 100 kPa
Settings	x1 = 0.1006	x1 = 0.2001	x1 = 0.3011	x1 = 0.3996	x1 = 0.4999	x1 = 0.6021	x1 = 0.7009	x1 = 0.7986	x1 = 0.9001
293.15 K	2.504	2.299	2.212	2.15	2.125	2.139	2.168	2.2	2.258
298.15 K	2.217	2.037	1.967	1.916	1.914	1.921	1.962	1.984	2.047
303.15 K	1.977	1.825	1.769	1.733	1.727	1.738	1.777	1.798	1.854
308.15 K	1.764	1.643	1.596	1.568	1.569	1.581	1.608	1.639	1.687
313.15 K	1.581	1.488	1.455	1.433	1.431	1.444	1.469	1.501	1.543
318.15 K	1.424	1.344	1.322	1.305	1.31	1.324	1.355	1.379	1.42

CC[N+](CC)(CC)Cc1ccccc1.[Cl-] + O
viscosity [mPa·s], 100 kPa
Settings	298.15 K	303.15 K	308.15 K	313.15 K	318.15 K
x1 = 8e-05	0.8929	0.7989	0.7209	0.6322	0.5462
x1 = 0.0002	0.8948	0.8015	0.7259	0.6354	0.5509
x1 = 0.0004	0.8991	0.8041	0.7284	0.6358	0.552
